Data published in PMC7366380, “Discovery of a Potent and Selective Covalent Inhibitor and Activity-Based Probe for the Deubiquitylating Enzyme UCHL1, with Antifibrotic Activity” (Journal of the American Chemical Society, 2020).
Values joined by “and” are separate entries in the source; they are usually repeats but may differ in a detail not shown here. Equal entries are not always repeated.

Experiments:
Test in all cases: In-cell proteome-wide competitive ABPP, HEK293: other DUBs and proteins
[1] = molecular target: DUBs and other proteins in HEK293 cells (Homo sapiens, UniProt O15372); conditions: for Log2 reporter intensity values, EIF3H: TMT replicates; for Log2 reporter intensity values: EIF3H: DMSO substract (FC); for Log2 reporter intensity values: EIF3H / Log2 reporter intensity values: replicates A-C; for Log2 t-test Difference / Log2 reporter intensity values: EIF3H
[2] = molecular target: DUBs and other proteins in HEK293 cells (Homo sapiens, UniProt P54578); conditions: replicates A-C; for Log2 reporter intensity values: USP14: competition with ABP 2, DMSO substract (FC); for Log2 reporter intensity values: USP14, DMSO subtracted
[3] = molecular target: T1, DUBs and other proteins in HEK293 cells (Homo sapiens, UniProt Q9Y5K5); conditions: replicates A-C; for Log2 reporter intensity values: UCHL5: competition with ABP 2, DMSO substract (FC); for Log2 reporter intensity values: UCHL5, DMSO subtracted
T1 sequence (Q9Y5K5 1-329): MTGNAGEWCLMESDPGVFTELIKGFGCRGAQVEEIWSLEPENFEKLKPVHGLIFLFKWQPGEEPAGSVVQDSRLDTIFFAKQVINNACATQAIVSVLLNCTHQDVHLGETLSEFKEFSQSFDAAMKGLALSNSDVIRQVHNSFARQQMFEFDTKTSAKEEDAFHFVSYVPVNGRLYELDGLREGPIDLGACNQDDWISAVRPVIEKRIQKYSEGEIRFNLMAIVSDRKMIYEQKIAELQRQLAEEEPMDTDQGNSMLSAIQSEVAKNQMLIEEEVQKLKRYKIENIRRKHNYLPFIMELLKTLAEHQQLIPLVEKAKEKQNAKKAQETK

[4] = molecular target: DUBs and other proteins in HEK293 cells (Homo sapiens, UniProt Q92905); conditions: for Log2 reporter intensity values, COPS5: TMT replicates; for Log2 reporter intensity values: COPS5: DMSO substract (FC); for Log2 reporter intensity values: COPS5 / Log2 reporter intensity values: replicates A-C; for Log2 t-test Difference / Log2 reporter intensity values: COPS5
[5] = molecular target: T2, DUBs and other proteins in HEK293 cells (Homo sapiens, UniProt Q9Y4E8); conditions: replicates A-C; for Log2 reporter intensity values: USP15: DMSO substract (FC); for Log2 reporter intensity values: USP15, DMSO subtracted
T2 sequence (Q9Y4E8 1-981): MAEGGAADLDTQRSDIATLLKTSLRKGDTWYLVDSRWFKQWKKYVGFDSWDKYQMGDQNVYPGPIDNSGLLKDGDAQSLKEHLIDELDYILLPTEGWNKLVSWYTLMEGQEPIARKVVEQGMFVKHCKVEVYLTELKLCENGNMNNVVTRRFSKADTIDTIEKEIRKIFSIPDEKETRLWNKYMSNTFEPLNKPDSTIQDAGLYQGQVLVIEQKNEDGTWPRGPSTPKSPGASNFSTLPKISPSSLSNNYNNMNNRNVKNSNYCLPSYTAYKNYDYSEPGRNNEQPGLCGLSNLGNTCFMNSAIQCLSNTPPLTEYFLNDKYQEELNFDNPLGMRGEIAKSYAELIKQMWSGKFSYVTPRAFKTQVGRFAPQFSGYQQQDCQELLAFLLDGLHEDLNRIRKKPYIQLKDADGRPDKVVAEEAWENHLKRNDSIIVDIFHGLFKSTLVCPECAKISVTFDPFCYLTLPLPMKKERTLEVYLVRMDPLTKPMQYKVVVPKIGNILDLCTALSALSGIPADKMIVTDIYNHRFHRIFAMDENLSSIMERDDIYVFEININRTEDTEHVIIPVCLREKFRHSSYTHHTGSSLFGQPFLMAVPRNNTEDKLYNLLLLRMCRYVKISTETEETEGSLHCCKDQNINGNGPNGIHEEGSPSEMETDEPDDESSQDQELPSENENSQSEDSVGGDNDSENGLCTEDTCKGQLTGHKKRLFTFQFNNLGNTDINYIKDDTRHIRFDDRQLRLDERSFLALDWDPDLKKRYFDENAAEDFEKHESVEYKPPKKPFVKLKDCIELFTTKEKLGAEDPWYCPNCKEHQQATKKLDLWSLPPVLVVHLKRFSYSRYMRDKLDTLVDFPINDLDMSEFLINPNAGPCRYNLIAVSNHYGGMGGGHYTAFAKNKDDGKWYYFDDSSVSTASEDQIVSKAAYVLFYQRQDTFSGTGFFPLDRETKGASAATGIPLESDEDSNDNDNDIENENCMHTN

[6] = molecular target: DUBs and other proteins in HEK293 cells (Homo sapiens, UniProt O00487); conditions: replicates A-C; for Log2 reporter intensity values: PSMD14: DMSO substract (FC); for Log2 reporter intensity values: PSMD14, DMSO subtracted
[7] = molecular target: DUBs and other proteins in HEK293 cells (Homo sapiens, UniProt Q93009); conditions: replicates A-C; for Log2 reporter intensity values: USP7: DMSO substract (FC); for Log2 reporter intensity values: USP7, DMSO subtracted
[8] = 1 μM 1 (60 min) + 20 nM ABP 2 (10 min), All values
[9] = 1 μM 1 (60 min) + 20 nM ABP 2 (10 min), DMSO subtracted
[10] = 4 μM 1 (60 min) + 20 nM ABP 2 (10 min), All values
[11] = 4 μM 1 (60 min) + 20 nM ABP 2 (10 min), DMSO subtracted
[12] = 1 at 1 μM, competition with ABP 2
[13] = 1 at 4 μM, competition with ABP 2
[14] = 20 nM ABP 2 (10 min), no competitor, All values
[15] = 20 nM ABP 2 (10 min), no competitor, DMSO subtracted

DUBs and other proteins in HEK293 cells (Homo sapiens, UniProt Q93009), sequence (Q93009 whole entry): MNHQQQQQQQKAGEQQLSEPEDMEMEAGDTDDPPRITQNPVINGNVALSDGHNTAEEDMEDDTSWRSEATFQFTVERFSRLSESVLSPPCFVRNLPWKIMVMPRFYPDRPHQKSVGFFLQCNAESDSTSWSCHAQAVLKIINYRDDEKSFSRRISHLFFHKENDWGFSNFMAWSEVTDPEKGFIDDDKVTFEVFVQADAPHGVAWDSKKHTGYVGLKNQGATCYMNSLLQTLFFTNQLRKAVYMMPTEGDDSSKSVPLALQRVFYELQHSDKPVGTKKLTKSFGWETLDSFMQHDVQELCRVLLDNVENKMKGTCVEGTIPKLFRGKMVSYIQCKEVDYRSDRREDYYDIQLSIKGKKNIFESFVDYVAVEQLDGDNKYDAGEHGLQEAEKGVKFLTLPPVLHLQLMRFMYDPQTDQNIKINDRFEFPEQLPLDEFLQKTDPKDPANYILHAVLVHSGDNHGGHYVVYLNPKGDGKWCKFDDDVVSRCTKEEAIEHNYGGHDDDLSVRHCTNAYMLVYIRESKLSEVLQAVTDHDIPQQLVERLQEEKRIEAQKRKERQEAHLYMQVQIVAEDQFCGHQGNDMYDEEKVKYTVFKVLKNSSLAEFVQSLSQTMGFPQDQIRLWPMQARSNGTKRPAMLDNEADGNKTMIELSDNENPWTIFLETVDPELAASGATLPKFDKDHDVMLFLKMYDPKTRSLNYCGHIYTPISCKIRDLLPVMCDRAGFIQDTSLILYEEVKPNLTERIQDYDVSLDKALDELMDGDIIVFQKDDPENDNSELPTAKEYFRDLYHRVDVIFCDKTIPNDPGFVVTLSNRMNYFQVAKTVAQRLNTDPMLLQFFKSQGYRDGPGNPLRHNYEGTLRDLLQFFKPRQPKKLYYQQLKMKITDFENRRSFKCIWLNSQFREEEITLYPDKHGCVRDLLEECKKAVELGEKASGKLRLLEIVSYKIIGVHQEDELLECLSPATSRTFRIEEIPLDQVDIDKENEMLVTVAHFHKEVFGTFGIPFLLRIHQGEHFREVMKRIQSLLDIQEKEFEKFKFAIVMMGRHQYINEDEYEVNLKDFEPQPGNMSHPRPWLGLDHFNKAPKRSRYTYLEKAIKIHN
DUBs and other proteins in HEK293 cells (Homo sapiens, UniProt O00487), sequence (O00487 whole entry): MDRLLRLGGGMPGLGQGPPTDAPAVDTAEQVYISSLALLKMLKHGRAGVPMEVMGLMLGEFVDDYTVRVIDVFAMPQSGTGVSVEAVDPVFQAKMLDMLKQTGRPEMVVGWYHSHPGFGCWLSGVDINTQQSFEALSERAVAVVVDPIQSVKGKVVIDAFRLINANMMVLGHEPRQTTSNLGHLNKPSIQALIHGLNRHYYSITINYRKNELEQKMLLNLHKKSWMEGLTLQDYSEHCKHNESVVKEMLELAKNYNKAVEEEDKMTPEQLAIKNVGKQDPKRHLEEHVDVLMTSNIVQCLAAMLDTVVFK
DUBs and other proteins in HEK293 cells (Homo sapiens, UniProt P54578), sequence (P54578 whole entry): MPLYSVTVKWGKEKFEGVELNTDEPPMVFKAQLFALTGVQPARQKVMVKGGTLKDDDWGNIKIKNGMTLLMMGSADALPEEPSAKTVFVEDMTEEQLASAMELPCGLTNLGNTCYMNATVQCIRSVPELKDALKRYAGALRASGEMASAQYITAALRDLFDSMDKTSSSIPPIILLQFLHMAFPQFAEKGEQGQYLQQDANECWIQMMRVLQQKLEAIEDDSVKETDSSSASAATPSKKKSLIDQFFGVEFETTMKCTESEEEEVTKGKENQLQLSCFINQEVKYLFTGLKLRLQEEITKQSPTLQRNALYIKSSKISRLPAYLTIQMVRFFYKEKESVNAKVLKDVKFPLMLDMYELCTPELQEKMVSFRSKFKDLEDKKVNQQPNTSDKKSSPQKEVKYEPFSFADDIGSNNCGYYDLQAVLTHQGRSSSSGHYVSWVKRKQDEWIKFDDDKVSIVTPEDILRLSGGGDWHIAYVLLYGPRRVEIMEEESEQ
DUBs and other proteins in HEK293 cells (Homo sapiens, UniProt O15372), sequence (O15372 whole entry): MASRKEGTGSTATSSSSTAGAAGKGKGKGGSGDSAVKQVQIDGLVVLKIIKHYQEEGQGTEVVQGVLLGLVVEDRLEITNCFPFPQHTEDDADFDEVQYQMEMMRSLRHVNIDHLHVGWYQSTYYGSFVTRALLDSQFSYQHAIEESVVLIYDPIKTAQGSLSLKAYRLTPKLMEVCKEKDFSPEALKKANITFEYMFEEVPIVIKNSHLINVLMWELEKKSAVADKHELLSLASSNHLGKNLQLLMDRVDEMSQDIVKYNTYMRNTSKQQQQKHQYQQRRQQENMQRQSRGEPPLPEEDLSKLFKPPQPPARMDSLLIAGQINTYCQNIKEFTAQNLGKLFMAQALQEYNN
DUBs and other proteins in HEK293 cells (Homo sapiens, UniProt Q92905), sequence (Q92905 whole entry): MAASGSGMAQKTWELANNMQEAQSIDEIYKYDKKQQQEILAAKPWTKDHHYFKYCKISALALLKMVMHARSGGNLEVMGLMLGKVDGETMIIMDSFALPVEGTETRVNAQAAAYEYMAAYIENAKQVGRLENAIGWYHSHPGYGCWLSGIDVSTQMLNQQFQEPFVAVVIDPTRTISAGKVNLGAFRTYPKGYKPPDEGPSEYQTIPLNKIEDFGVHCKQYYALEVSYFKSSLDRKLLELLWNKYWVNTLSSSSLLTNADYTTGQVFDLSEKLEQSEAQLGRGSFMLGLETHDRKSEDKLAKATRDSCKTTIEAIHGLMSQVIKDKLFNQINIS

SMILES: N#CN1CCC[C@H]1C(=O)N1CCc2c(-c3c[nH]c4ncccc34)cccc21 [Compound 1]
- Log2 reporter intensity values, EIF3H [1, 8]: -0.09256 and -0.05547 and -0.03085
- Log2 reporter intensity values, EIF3H [1, 9]: -0.1222 and -0.08506 and -0.06044
- Log2 reporter intensity values, EIF3H [1, 10]: -0.07138 and -0.1308 and -0.1362
- Log2 reporter intensity values, EIF3H [1, 11]: -0.101 and -0.1603 and -0.1658
- Log2 reporter intensity values: EIF3H [1, 12]: 0.9188 and 0.9427 and 0.959
- Log2 reporter intensity values: EIF3H [1, 13]: 0.9324 and 0.8948 and 0.8914
- Log2 t-test Difference ([1]; 1 - 1 μM): -0.08557
- Log2 t-test Difference ([1]; 1 - 4 μM): -0.1387
- Log2 reporter intensity values ([1]; 1_1 μM, DMSO subtracted): -0.08133 and -0.0574 and -0.04117
- Log2 reporter intensity values ([1]; 1_4 μM, DMSO subtracted): -0.06774 and -0.1053 and -0.1087
- Log2 reporter intensity values ([1]; 1 at 1 μM, DMSO subtracted): -0.1222 and -0.08506 and -0.06044
- Log2 reporter intensity values ([1]; 1 at 4 μM, DMSO subtracted): -0.101 and -0.1603 and -0.1658
- Log2 reporter intensity values: USP14 ([2]; 1 at 1 μM): 1.068 and 1.073 and 1.08
- Log2 reporter intensity values: USP14 ([2]; 1 at 4 μM): 1.026 and 1.014 and 1.052
- Log2 reporter intensity values ([2]; 1_1 μM): 0.06753 and 0.073 and 0.0796
- Log2 reporter intensity values ([2]; 1_4 μM): 0.02617 and 0.01386 and 0.05174
- Log2 reporter intensity values ([2]; 1 at 1 μM): 0.09459 and 0.102 and 0.1108
- Log2 reporter intensity values ([2]; 1 at 4 μM): 0.03759 and 0.02017 and 0.07309
- Log2 reporter intensity values: UCHL5 ([3]; 1 at 1 μM): 1.121 and 1.059 and 1.084
- Log2 reporter intensity values: UCHL5 ([3]; 1 at 4 μM): 1.068 (2×) and 1.07
- Log2 reporter intensity values ([3]; 1_1 μM): 0.1208 and 0.05828 and 0.08364
- Log2 reporter intensity values ([3]; 1_4 μM): 0.06718 and 0.06755 and 0.06936
- Log2 reporter intensity values ([3]; 1 at 1 μM): 0.1653 and 0.08265 and 0.1168
- Log2 reporter intensity values ([3]; 1 at 4 μM): 0.09472 and 0.09521 and 0.09766
- Log2 reporter intensity values, COPS5 [4, 8]: -0.01371 and -0.03292 and 0.07504
- Log2 reporter intensity values, COPS5 [4, 9]: 0.04441 and 0.02519 and 0.1332
- Log2 reporter intensity values, COPS5 [4, 10]: 0.02465 and -0.01344 and 0.1212
- Log2 reporter intensity values, COPS5 [4, 11]: 0.08277 and 0.04467 and 0.1793
- Log2 reporter intensity values: COPS5 [4, 12]: 1.031 and 1.018 and 1.097
- Log2 reporter intensity values: COPS5 [4, 13]: 1.059 and 1.031 and 1.132
- Log2 t-test Difference ([4]; 1 - 1 μM): -0.09474
- Log2 t-test Difference ([4]; 1 - 4 μM): -0.06006
- Log2 reporter intensity values ([4]; 1_1 μM, DMSO subtracted): 0.03118 and 0.01753 and 0.09661
- Log2 reporter intensity values ([4]; 1_4 μM, DMSO subtracted): 0.05896 and 0.03137 and 0.1323
- Log2 reporter intensity values ([4]; 1 at 1 μM, DMSO subtracted): 0.04441 and 0.02519 and 0.1332
- Log2 reporter intensity values ([4]; 1 at 4 μM, DMSO subtracted): 0.08277 and 0.04467 and 0.1793
- Log2 reporter intensity values: USP15 [5, 12]: 0.9886 and 1.029 and 1.017
- Log2 reporter intensity values: USP15 [5, 13]: 1.093 and 1.191 and 1.05
- Log2 reporter intensity values ([5]; 1_1 μM): -0.01164 and 0.02918 and 0.01631
- Log2 reporter intensity values ([5]; 1_4 μM): 0.09302 and 0.1906 and 0.04957
- Log2 reporter intensity values ([5]; 1 at 1 μM): -0.0165 and 0.04186 and 0.02371
- Log2 reporter intensity values ([5]; 1 at 4 μM): 0.1287 and 0.252 and 0.07016
- Log2 reporter intensity values: PSMD14 [6, 12]: 1.038 and 0.9518 and 1.018
- Log2 reporter intensity values: PSMD14 [6, 13]: 1.04 and 0.9939 and 0.9281
- Log2 reporter intensity values ([6]; 1_1 μM): 0.0358 and -0.05091 and 0.01579
- Log2 reporter intensity values ([6]; 1_4 μM): 0.03701 and -0.008736 and -0.0746
- Log2 reporter intensity values ([6]; 1 at 1 μM): 0.05445 and -0.07134 and 0.02638
- Log2 reporter intensity values ([6]; 1 at 4 μM): 0.05612 and -0.008793 and -0.1077
- Log2 reporter intensity values: USP7 [7, 12]: 1.015 and 0.998 and 1.012
- Log2 reporter intensity values: USP7 [7, 13]: 1.024 and 0.9908 and 1.009
- Log2 reporter intensity values ([7]; 1_1 μM): 0.01464 and -0.002291 and 0.01166
- Log2 reporter intensity values ([7]; 1_4 μM): 0.02367 and -0.009481 and 0.008925
- Log2 reporter intensity values ([7]; 1 at 1 μM): 0.02137 and -0.002902 and 0.01712
- Log2 reporter intensity values ([7]; 1 at 4 μM): 0.03415 and -0.01333 and 0.01322

SMILES: C#Cc1cnc2[nH]cc(-c3cccc4c3CCN4C(=O)[C@@H]3CCCN3C#N)c2c1 [Compound 2]
- Log2 reporter intensity values, EIF3H [1, 14]: 0.02449 and 0.02357 and 0.02975
- Log2 reporter intensity values, EIF3H [1, 15]: -0.005103 and -0.006015 and 0.0001635
- Log2 reporter intensity values: EIF3H ([1]; 20 nM ABP 2 alone): 0.9965 and 0.9958 and 1
- Log2 reporter intensity values ([1]; 20 nM ABP 2, DMSO subtracted): -0.005103 and -0.006015 and 0.0001635 and -0.003675 and -0.004305 and -3.08E-05
- Log2 t-test Difference ([1]; ABP 2 - 20 nM): -0.003651
- Log2 reporter intensity values ([2]; 20 nM ABP 2): 0.1674 and 0.2186 and 0.2005 and 0.1633 and 0.1489
- Log2 reporter intensity values, COPS5 [4, 14]: 0.09368 and -0.02632 and 0.2453
- Log2 reporter intensity values, COPS5 [4, 15]: 0.1518 and 0.03179 and 0.3034
- Log2 reporter intensity values: COPS5 ([4]; 20 nM ABP 2 alone): 1.111 and 1.022 and 1.234
- Log2 reporter intensity values ([4]; 20 nM ABP 2, DMSO subtracted): 0.1518 and 0.03179 and 0.3034 and 0.1109 and 0.0222 and 0.2339
- Log2 t-test Difference ([4]; ABP 2 - 20 nM): 0.1623
- Log2 reporter intensity values: USP15 ([5]; 20 nM ABP 2 alone): 1.045 and 1.025 and 1.159
- Log2 reporter intensity values ([5]; 20 nM ABP 2): 0.06335 and 0.03549 and 0.2127 and 0.04463 and 0.02465 and 0.1586
- Log2 reporter intensity values: PSMD14 ([6]; 20 nM ABP 2 alone): 0.9494 and 1.033 and 1.015
- Log2 reporter intensity values ([6]; 20 nM ABP 2): -0.07484 and 0.0464 and 0.02103 and -0.05321 and 0.03002 and 0.01203
- Log2 reporter intensity values: USP7 ([7]; 20 nM ABP 2 alone): 0.9183 and 1.036 and 1.009
- Log2 reporter intensity values ([7]; 20 nM ABP 2): 0.05058 and 0.01361 and -0.082 and 0.009195
